Measured values: ChEMBL document CHEMBL1128045, “Antifungal lipopeptides: Structure-activity relationships of 3-hydroxyglutamine-modified pneumocandin B0 derivatives” (Bioorg Med Chem Lett, 1995)
Converted amounts (≈) assume the structure as drawn. Numbered stars: 1 amine (or outer) side, 2 acyl side, 3 side chain; on linkers, the order of the positions; unused ones are H or OH. Bridge positions count the residues as written; N and C are the ends. Square brackets hold non-standard residues; d marks the D form. Peptide text beside a SMILES is read from it. * marks the point of attachment. Orn(4R-OH,5R-OH) = O=C([C@H](C[C@@H](O)[C@@H](O)N[*:3])N[*:1])[*:2]; hTyr(3S-OH,4S-OH) = N[C@H](C(=O)O)[C@H](O)[C@@H](O)c1ccc(O)cc1; Orn(4R-OH) = O=C([C@H](C[C@@H](O)CN[*:3])N[*:1])[*:2]; X15 = NCCCCCCNC(=O)C[C@@H](O)[C@H](N[*:1])C(=O)[*:2]; X10 = N#CCN(CC#N)CC[C@@H](O)[C@H](N[*:1])C(=O)[*:2]; hTyr(3R-OH) = N[C@H](C(=O)O)[C@H](O)Cc1ccc(O)cc1; X12 = CC(=O)NCC[C@@H](O)[C@H](N[*:1])C(=O)[*:2]; X4 = N=C(S)C[C@@H](O)[C@H](N[*:1])C(=O)[*:2]; X7 = CN(C)CC[C@@H](O)[C@H](N[*:1])C(=O)[*:2]; Gln(3R-OH) = NC(=O)C[C@@H](O)[C@H](N)C(=O)O; X17 = O=C([C@@H](N[*:1])[C@H](O)CCO)[*:2]; Orn(3R-OH) = NCC[C@@H](O)[C@H](N)C(=O)O; Pro(3S-OH) = O=C(O)[C@H]1NCC[C@@H]1O; Hyp = O=C(O)[C@@H]1C[C@@H](O)CN1; X1 = CCC(C)CC(C)CCCCCCCCC(=O)*

Tests used:
Beta-1,3-glucan synthase = Beta-1,3-glucan synthase (Candida albicans, UniProt O13428); assay: Tested for inhibition of Beta-1,3-glucan synthase using a crude membrane of Candida albicans (MY 1208).
Chain of Beta-1,3-glucan synthase (O13428 whole entry): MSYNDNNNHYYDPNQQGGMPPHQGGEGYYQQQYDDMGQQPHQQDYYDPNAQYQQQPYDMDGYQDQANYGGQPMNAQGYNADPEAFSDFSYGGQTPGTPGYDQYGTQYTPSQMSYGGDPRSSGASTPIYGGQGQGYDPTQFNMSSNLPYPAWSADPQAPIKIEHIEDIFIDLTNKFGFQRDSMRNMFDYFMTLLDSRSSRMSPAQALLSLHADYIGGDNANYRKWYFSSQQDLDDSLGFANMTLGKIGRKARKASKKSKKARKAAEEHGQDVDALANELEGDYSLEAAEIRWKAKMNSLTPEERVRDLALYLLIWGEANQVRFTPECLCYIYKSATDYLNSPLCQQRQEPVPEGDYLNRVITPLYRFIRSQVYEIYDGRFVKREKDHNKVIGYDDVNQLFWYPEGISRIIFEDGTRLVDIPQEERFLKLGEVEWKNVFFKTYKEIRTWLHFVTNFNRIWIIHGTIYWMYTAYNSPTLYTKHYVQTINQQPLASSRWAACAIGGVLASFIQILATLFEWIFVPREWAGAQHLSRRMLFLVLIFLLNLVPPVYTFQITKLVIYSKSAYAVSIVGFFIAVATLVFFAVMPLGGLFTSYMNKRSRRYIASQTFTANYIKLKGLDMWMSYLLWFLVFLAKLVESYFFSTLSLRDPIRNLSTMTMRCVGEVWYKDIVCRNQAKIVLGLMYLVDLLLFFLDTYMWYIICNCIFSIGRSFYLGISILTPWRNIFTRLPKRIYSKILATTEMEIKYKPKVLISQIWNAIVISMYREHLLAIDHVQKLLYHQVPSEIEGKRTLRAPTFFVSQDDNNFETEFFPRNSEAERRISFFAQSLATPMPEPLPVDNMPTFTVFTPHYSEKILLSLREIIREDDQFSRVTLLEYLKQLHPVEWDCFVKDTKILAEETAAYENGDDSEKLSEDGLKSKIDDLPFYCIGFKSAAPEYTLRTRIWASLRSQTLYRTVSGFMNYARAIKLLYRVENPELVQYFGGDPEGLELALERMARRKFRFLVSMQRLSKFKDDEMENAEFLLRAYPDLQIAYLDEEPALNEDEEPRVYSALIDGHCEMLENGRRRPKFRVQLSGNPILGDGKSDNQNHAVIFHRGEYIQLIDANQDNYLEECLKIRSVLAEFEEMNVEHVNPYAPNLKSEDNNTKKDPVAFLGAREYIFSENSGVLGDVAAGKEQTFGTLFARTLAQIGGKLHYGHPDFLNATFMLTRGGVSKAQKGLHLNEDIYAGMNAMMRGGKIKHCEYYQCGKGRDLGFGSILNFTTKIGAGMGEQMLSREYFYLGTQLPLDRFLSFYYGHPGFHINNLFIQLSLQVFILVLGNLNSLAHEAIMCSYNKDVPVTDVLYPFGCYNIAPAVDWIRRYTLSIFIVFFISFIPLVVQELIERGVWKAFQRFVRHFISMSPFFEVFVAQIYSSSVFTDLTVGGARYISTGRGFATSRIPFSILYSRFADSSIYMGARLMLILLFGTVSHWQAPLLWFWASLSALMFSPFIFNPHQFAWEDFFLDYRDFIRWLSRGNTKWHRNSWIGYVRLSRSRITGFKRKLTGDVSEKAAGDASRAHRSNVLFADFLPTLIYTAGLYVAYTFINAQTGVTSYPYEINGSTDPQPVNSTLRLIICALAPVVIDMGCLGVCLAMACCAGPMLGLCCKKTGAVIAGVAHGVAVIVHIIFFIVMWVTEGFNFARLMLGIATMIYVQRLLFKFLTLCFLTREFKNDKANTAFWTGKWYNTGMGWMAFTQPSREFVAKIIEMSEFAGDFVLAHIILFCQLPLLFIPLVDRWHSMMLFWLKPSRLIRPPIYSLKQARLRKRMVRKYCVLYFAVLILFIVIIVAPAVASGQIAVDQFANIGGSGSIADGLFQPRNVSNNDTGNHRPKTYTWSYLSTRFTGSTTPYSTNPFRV

[1] = In vivo anti-Candida activity was determined in a mouse model of disseminated candidiasis (TOKA).; type: functional
Candida albicans = assay: In vitro Fungicidal activity (MFC) against Candida albicans (MY 1055).; type: functional
Candida parapsilosis = assay: In vitro Fungicidal activity (MFC) against Candida parapsilosis (MY 1010).; type: functional; details: Lodderomyces parapsilosis

SMILES	IC50 (Beta-1,3-glucan synthase)	ED99.9 [1]	MFC (Candida albicans)	MFC (Candida parapsilosis)
CCC(C)CC(C)CCCCCCCCC(=O)N[C@H]1C[C@@H](O)CNC(=O)[C@@H]2[C@@H](O)CCN2C(=O)[C@H]([C@H](O)CCN)NC(=O)[C@H]([C@H](O)Cc2ccc(O)cc2)NC(=O)[C@@H]2C[C@@H](O)CN2C(=O)[C@H]([C@@H](C)O)NC1=O (stereo partly drawn) (X1-[Orn(4R-OH)]T[Hyp][hTyr(3R-OH)][Orn(3R-OH)][Pro(3S-OH)]; lactam 1-C)	0.01 µM	1.5 mg/kg	0.125 µg/mL (≈ 0.123 µM)	–
CCC(C)CC(C)CCCCCCCCC(=O)N[C@H]1C[C@@H](O)[C@@H](O)NC(=O)[C@@H]2[C@@H](O)CCN2C(=O)[C@H]([C@H](O)CCN)NC(=O)[C@H]([C@H](O)[C@@H](O)c2ccc(O)cc2)NC(=O)[C@@H]2C[C@@H](O)CN2C(=O)[C@H]([C@@H](C)O)NC1=O (stereo partly drawn) (X1-[Orn(4R-OH,5R-OH)]T[Hyp][hTyr(3S-OH,4S-OH)][Orn(3R-OH)][Pro(3S-OH)]; lactam 1-C)	0.01 µM	0.375 mg/kg	< 0.06 µg/mL	0.5 µg/mL (≈ 0.476 µM)
CCC(C)CC(C)CCCCCCCCC(=O)N[C@H]1C[C@@H](O)[C@@H](O)NC(=O)[C@@H]2[C@@H](O)CCN2C(=O)[C@H]([C@H](O)CCN(C)C)NC(=O)[C@H]([C@H](O)[C@@H](O)c2ccc(O)cc2)NC(=O)[C@@H]2C[C@@H](O)CN2C(=O)[C@H]([C@@H](C)O)NC1=O (stereo partly drawn) (X1-[Orn(4R-OH,5R-OH)]T[Hyp][hTyr(3S-OH,4S-OH)][X7][Pro(3S-OH)]; lactam 1-C)	0.005 µM	1.5 mg/kg	1 µg/mL (≈ 0.927 µM)	2 µg/mL (≈ 1.85 µM)
CCC(C)CC(C)CCCCCCCCC(=O)N[C@H]1C[C@@H](O)[C@@H](O)NC(=O)[C@@H]2[C@@H](O)CCN2C(=O)[C@H]([C@H](O)CC(N)=O)NC(=O)[C@H]([C@H](O)[C@@H](O)c2ccc(O)cc2)NC(=O)[C@@H]2C[C@@H](O)CN2C(=O)[C@H]([C@@H](C)O)NC1=O (stereo partly drawn) (X1-[Orn(4R-OH,5R-OH)]T[Hyp][hTyr(3S-OH,4S-OH)][Gln(3R-OH)][Pro(3S-OH)]; lactam 1-C)	–	6 mg/kg	0.25 µg/mL (≈ 0.235 µM)	1 µg/mL (≈ 0.939 µM)
CCC(C)CC(C)CCCCCCCCC(=O)N[C@H]1C[C@@H](O)CNC(=O)[C@@H]2[C@@H](O)CCN2C(=O)[C@H]([C@H](O)CCO)NC(=O)[C@H]([C@H](O)Cc2ccc(O)cc2)NC(=O)[C@@H]2C[C@@H](O)CN2C(=O)[C@H]([C@@H](C)O)NC1=O (stereo partly drawn) (X1-[Orn(4R-OH)]T[Hyp][hTyr(3R-OH)][X17][Pro(3S-OH)]; lactam 1-C)	0.2 µM	–	1 µg/mL (≈ 0.98 µM)	8 µg/mL (≈ 7.84 µM)
CCC(C)CC(C)CCCCCCCCC(=O)N[C@H]1C[C@@H](O)[C@@H](O)NC(=O)[C@@H]2[C@@H](O)CCN2C(=O)[C@H]([C@H](O)CCNC(C)=O)NC(=O)[C@H]([C@H](O)[C@@H](O)c2ccc(O)cc2)NC(=O)[C@@H]2C[C@@H](O)CN2C(=O)[C@H]([C@@H](C)O)NC1=O (stereo partly drawn) (X1-[Orn(4R-OH,5R-OH)]T[Hyp][hTyr(3S-OH,4S-OH)][X12][Pro(3S-OH)]; lactam 1-C)	0.3 µM	12 mg/kg	4 µg/mL (≈ 3.66 µM)	8 µg/mL (≈ 7.32 µM)
CCC(C)CC(C)CCCCCCCCC(=O)N[C@H]1C[C@@H](O)CNC(=O)[C@@H]2[C@@H](O)CCN2C(=O)[C@H]([C@H](O)CC(=O)NCCCCCCN)NC(=O)[C@H]([C@H](O)Cc2ccc(O)cc2)NC(=O)[C@@H]2C[C@@H](O)CN2C(=O)[C@H]([C@@H](C)O)NC1=O (stereo partly drawn) (X1-[Orn(4R-OH)]T[Hyp][hTyr(3R-OH)][X15][Pro(3S-OH)]; lactam 1-C)	0.038 µM	>6 mg/kg	0.5 µg/mL (≈ 0.442 µM)	–
CCC(C)CC(C)CCCCCCCCC(=O)N[C@H]1C[C@@H](O)CNC(=O)[C@@H]2[C@@H](O)CCN2C(=O)[C@H]([C@H](O)CC(=N)S)NC(=O)[C@H]([C@H](O)Cc2ccc(O)cc2)NC(=O)[C@@H]2C[C@@H](O)CN2C(=O)[C@H]([C@@H](C)O)NC1=O (stereo partly drawn) (X1-[Orn(4R-OH)]T[Hyp][hTyr(3R-OH)][X4][Pro(3S-OH)]; lactam 1-C)	0.12 µM	>6 mg/kg	0.25 µg/mL (≈ 0.238 µM)	4 µg/mL (≈ 3.81 µM)
CCC(C)CC(C)CCCCCCCCC(=O)N[C@H]1C[C@@H](O)[C@@H](O)NC(=O)[C@@H]2[C@@H](O)CCN2C(=O)[C@H]([C@H](O)CCN(CC#N)CC#N)NC(=O)[C@H]([C@H](O)[C@@H](O)c2ccc(O)cc2)NC(=O)[C@@H]2C[C@@H](O)CN2C(=O)[C@H]([C@@H](C)O)NC1=O (stereo partly drawn) (X1-[Orn(4R-OH,5R-OH)]T[Hyp][hTyr(3S-OH,4S-OH)][X10][Pro(3S-OH)]; lactam 1-C)	> 0.2 µM	>1.5 mg/kg	4 µg/mL (≈ 3.54 µM)	8 µg/mL (≈ 7.08 µM)
